Data on 1 molecule can be found in paper PMC11054271, “ABCG2 Transports the Flukicide Nitroxynil and Affects Its Biodistribution and Secretion into Milk” (Pharmaceutics, 2024).

Where two headings read alike, the source gives them in different places.

Data set [1] has as its system ovine ABCG2. Description: Transepithelial transport assay in MDCK-II cells transduced with ovine ABCG2. Type of data set: in vitro ADME. The following applies: sheep, MDCK-II oABCG2, nitroxynil 10 µM, no Ko143, read-out: Relative efflux transport ratio (BA/AB). Here is the method: (§1) Parental Madin–Darby canine kidney epithelial cells (MDCK–II) and their subclones transduced with murine (mAbcg2) and human (hABCG2) variants of ABCG2 were kindly provided by Dr. A. H. Schinkel (Netherlands Cancer Institute). Transduced MDCK–II cells with the ovine (oABCG2) and bovine (bABCG2) variants were previously generated by our group. Cells were cultured as described elsewhere.
(§2) Transepithelial transport assays were carried out as previously described with minor variations, using Hanks’ balanced salt solution (Sigma-Aldrich) supplemented with HEPES (25 mM), with or without Ko143 (1 μM), and containing or not nitroxynil 10 μM. […] At the end of the experiment, confluence of the monolayer was measured with the previously described Lucifer Yellow permeability test, with minor modifications. The appearance of nitroxynil in the opposite side of the well was measured by HPLC as later described. Active transport was expressed as relative efflux transport ratio (apically directed transport percentage divided by the basolaterally directed translocation percentage) at 4 h and referred to the initial concentration. […]
(§3) Waters 2695 separation module and Waters 2998 UV photodiode array detector set at 270 nm were used for samples analysis. […] Limit of detection (LOD) and quantification (LOQ) were calculated as previously described. […]

For data set [2], the target named is T1, human ABCG2 (Homo sapiens, UniProt Q9UNQ0).
T1 construct: expressed in transfected cells; host or cells: MDCK-II (canine kidney) subclone, provided by A. H. Schinkel (Netherlands Cancer Institute)
T1 sequence (Q9UNQ0 1-655): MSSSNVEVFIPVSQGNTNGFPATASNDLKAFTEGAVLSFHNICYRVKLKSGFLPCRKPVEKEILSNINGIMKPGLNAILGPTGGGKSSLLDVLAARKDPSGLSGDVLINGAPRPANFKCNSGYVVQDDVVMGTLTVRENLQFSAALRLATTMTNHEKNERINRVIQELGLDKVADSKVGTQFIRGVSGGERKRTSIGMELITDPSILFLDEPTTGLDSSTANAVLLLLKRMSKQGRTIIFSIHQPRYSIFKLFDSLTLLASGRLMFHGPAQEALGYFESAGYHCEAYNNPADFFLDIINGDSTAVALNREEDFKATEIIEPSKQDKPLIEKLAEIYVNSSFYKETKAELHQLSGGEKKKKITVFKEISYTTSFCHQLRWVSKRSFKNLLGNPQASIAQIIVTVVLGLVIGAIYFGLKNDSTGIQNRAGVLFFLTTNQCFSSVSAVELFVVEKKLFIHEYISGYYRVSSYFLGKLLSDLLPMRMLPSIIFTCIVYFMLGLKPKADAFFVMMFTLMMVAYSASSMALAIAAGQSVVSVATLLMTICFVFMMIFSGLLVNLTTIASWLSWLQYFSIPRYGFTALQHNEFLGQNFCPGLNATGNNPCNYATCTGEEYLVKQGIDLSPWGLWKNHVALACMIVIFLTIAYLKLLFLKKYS
The data set is described as follows: Transepithelial transport assay in MDCK-II cells transduced with human ABCG2. It is filed as in vitro ADME. The following applies: MDCK-II hABCG2, nitroxynil 10 µM, no Ko143, read-out: Relative efflux transport ratio (BA/AB). As to the method:
as §1, §2, §3

The subject of data set [3] is T2, murine Abcg2.
T2 construct: from tissue; host or cells: whole animal: wild-type vs Abcg2-/- mice, >99% FVB/N background
Description: Tissue distribution in wild-type and Abcg2−/− male mice. The following applies: FVB/N, mouse, sc, wild-type male mice, 10 mg/kg s.c. It is filed as in vivo. Here is the method:
All in vivo experiments were carried out using wild-type and Abcg2^−/− mice aged between 8 and 17 weeks, all of >99% FVB/N genetic background, generated and gently supplied by A. H. Schinkel (Netherlands Cancer Institute). Mice were housed and handled complying with institutional and ARRIVE guidelines and European legislation (EU Directive 2010/63/EU for animal experiments). Additionally, experimental procedures were approved by the Animal Care and Use Committee of the University of León and the Junta de Castilla y León (ULE_011_2019).
For pharmacokinetic experiments, a single dose of nitroxynil at 10 mg/kg was administered subcutaneously to wild-type and Abcg2^−/− male mice (n = 4–5, for each time point). Distomicide® (250 mg/mL) commercial solution was dissolved in saline (sodium chloride 0.9%) and dosed at 200 μL per 30 g body weight. Blood samples were collected at different time points (0.5, 3, 4.5, 6, 24, 48 and 96 h) and heparinized blood samples were centrifugated for 15 min at 3000× g. Organs were also collected at 24 and 96 h after euthanasia. Linear trapezoidal rule was used to calculate the area under the plasma concentration–time curve (AUC) parameter.
Plasma, milk and tissue samples from each animal were individually processed and analyzed without pooling, while samples from transport assays were not processed. Tissue samples were homogenized in a mixture of 50% water/50% methanol HCl 0.5% (v/v); 1 mL solution per 0.1 g tissue. The entire amount of collected milk (74.7–295.1 mg) and 100 μL plasma and tissue homogenates were processed. To each sample, 10 μL of a nitrofurantoin solution (10 μg/mL for plasma and milk and 2 μg/mL for homogenized tissues) was added as an internal standard and 150 μL acetonitrile was used to precipitate the proteins. The mixture was vortexed horizontally for 15 min and centrifugated at 10,000× g for 5 min at 4 °C. Supernatant was transferred to a new tube and dried at 40 °C under N2 stream. Samples were reconstituted in 100 μL of mobile phase and 50 μL was injected into HPLC. Standards were subjected to the same procedures as samples.
Waters 2695 separation module and Waters 2998 UV photodiode array detector set at 270 nm were used for samples analysis. Chromatographic conditions for nitroxynil detection were based on previously described methods, with minor modifications. Chromatographic separation was achieved on a reverse-phase column (Synergy 4 μm Hydro–RP 80 Å, 250 × 4.60 mm; Phenomenex®, Torrance, CA, USA) using an isocratic binary mobile phase consisting of 25 mM potassium phosphate monobasic (KH2PO4), pH 4: acetonitrile (70:30 for culture samples and 80:20 for animal samples) at a flow rate of 1 mL/min. Autosampler and column temperature were 4 °C and 40 °C, respectively. Limit of detection (LOD) and quantification (LOQ) were calculated as previously described. For cell culture samples, LOD and LOQ were 0.003 μg/mL and 0.007 μg/mL, respectively. For in vivo samples, LOD was in the range of 0.01–0.07 μg/mL and LOQ in the range of 0.03–0.15 μg/mL.

On the set-up of data set [4]: method as in PMID 21657788. The settings on record: cited from earlier work.

Turning to `N#Cc1cc(I)c(O)c([N+](=O)[O-])c1` [nitroxynil], the efflux ratio at 4 h, 10 µM in data set [1] is 27.4 ± 5.32; in data set [2], 8.76 ± 0.5. In data set [3] (kidney and plasma, 96 h, read-out: Tissue/plasma ratio, kidney), the Kp at 96 h came to 0.06 ± 0.01. In addition, the concentration at 24 h in data set [3] (kidney, read-out: Tissue concentration, kidney) is 5900 ± 1200 ng/g; in data set [3] (liver, read-out: Tissue concentration, liver), 900 ± 300 ng/g; in data set [3] (small intestine, read-out: Levels of nitroxynil in small intestine) it was 1100 ± 200 ng/mL; in data set [3] (small intestine, read-out: Tissue concentration, small intestine), 1100 ± 200 ng/g; in data set [3] (spleen, read-out: Accumulation in spleen), 1400 ± 300 ng/mL; in data set [3] (spleen, read-out: Tissue concentration, spleen) it was 1400 ± 300 ng/g. Further, the concentration at 24 h was found to be 2600 ± 200 ng/mL in data set [3] (testis, read-out: Concentration in testis) and 2600 ± 200 ng/g in data set [3] (testis, read-out: Tissue concentration, testis). Also, the concentration at 96 h in data set [3] (kidney, 96 h) was 900 ± 100 ng/g. In addition, the “Time after treatment at which residues have been found in milk” value in data set [4] is given as “up to 58 days”.
